Results from ChEMBL document CHEMBL5331050, “Spiro[benzoxazine-piperidin]-one derivatives as chitin synthase inhibitors and antifungal agents: Design, synthesis and biological evaluation” (Eur J Med Chem, 2022).
In brackets after ≈: the same amount, converted by molar mass. *1 amine or outer side, *2 acyl side, *3 side chain or, on linkers, in order; H or OH if unused. Where a SMILES comes first, the peptide text is derived from it. Bridges are numbered along the chain shown (N, C = ends). [ ]: non-standard residue; d: D form. The star is where a group is joined. hTyr(3S-OH,4S-OH,3'-OSO3H) = N[C@H](C(=O)O)[C@H](O)[C@@H](O)c1ccc(O)c(OS(=O)(=O)O)c1; Orn(4R-OH,5R-OH) = O=C([C@H](C[C@@H](O)[C@@H](O)N[*:3])N[*:1])[*:2]; Pro(3S-OH,4S-Me) = C[C@H]1CN[C@H](C(=O)O)[C@H]1O; X1 = CCCCCOc1ccc(-c2cc(-c3ccc(C(=O)*)cc3)no2)cc1; Gln(3R-OH) = NC(=O)C[C@@H](O)[C@H](N)C(=O)O; Hyp = O=C(O)[C@@H]1C[C@@H](O)CN1

Tests used:
Candida tropicalis = assay: Inhibition of Candida tropicalis ATCC 750 chitin synthase using UDP-GlcNAc as substrate at 300 ug/ml incubated for 1 hrs by absorbance based assay relative to control; conditions: dose 300.0 µg/ml
Candida albicans [1] = assay: Antifungal activity against Candida albicans ATCC 76615 assessed as fungal growth inhibition incubated for 24 hrs by CLSI protocol based broth microdilution method; assay type: functional
Aspergillus flavus [2] = assay: Antifungal activity against Aspergillus flavus ATCC 16870 assessed as fungal growth inhibition incubated for 24 hrs by CLSI protocol based broth microdilution method; assay type: functional
Aspergillus fumigatus [3] = assay: Antifungal activity against Aspergillus fumigatus GIMCC 3.19 assessed as fungal growth inhibition incubated for 24 hrs by CLSI protocol based broth microdilution method; assay type: functional
Cryptococcus neoformans [4] = assay: Antifungal activity against Cryptococcus neoformans ATCC 208821 assessed as fungal growth inhibition incubated for 24 hrs by CLSI protocol based broth microdilution method; assay type: functional
Candida albicans [5] = assay: Synergistic antifungal activity against Candida albicans ATCC 76615 assessed as fungal growth inhibition incubated for 24 hrs in the presence of fluconazole by broth dilution based checkerboard method; assay type: functional
Aspergillus fumigatus [6] = assay: Synergistic antifungal activity against Aspergillus fumigatus GIMCC 3.19 assessed as fungal growth inhibition incubated for 24 hrs in the presence of fluconazole by broth dilution based checkerboard method; assay type: functional
Cryptococcus neoformans [7] = assay: Synergistic antifungal activity against Cryptococcus neoformans ATCC 208821 assessed as fungal growth inhibition incubated for 24 hrs in the presence of fluconazole by broth dilution based checkerboard method; assay type: functional
Aspergillus flavus [8] = assay: Synergistic antifungal activity against Aspergillus flavus ATCC 16870 assessed as fungal growth inhibition incubated for 24 hrs in the presence of fluconazole by broth dilution based checkerboard method; assay type: functional
Candida albicans [9] = assay: Synergistic antifungal activity against Candida albicans ATCC 76615 assessed as fractional inhibitory concentration index incubated for 24 hrs in the presence of fluconazole by broth dilution based checkerboard method; assay type: functional
Aspergillus fumigatus [10] = assay: Synergistic antifungal activity against Aspergillus fumigatus GIMCC 3.19 assessed as fractional inhibitory concentration index incubated for 24 hrs in the presence of fluconazole by broth dilution based checkerboard method; assay type: functional
Cryptococcus neoformans [11] = assay: Synergistic antifungal activity against Cryptococcus neoformans ATCC 208821 assessed as fractional inhibitory concentration index incubated for 24 hrs in the presence of fluconazole by broth dilution based checkerboard method; assay type: functional
Aspergillus flavus [12] = assay: Synergistic antifungal activity against Aspergillus flavus ATCC 16870 assessed as fractional inhibitory concentration index incubated for 24 hrs in the presence of fluconazole by broth dilution based checkerboard method; assay type: functional
Candida albicans [13] = assay: Antifungal activity against micafungin-resistant Candida albicans ATCC 76615R assessed as fungal growth inhibition; assay type: functional
[14] = Inhibition of Candida tropicalis ATCC 750 chitin synthase using UDP-GlcNAc as substrate incubated for 1 hrs by absorbance based assay
Candida albicans [15] = assay: Antifungal activity against fluconazole-resistant Candida albicans ATCC 76615R assessed as fungal growth inhibition; assay type: functional
Cryptococcus neoformans [16] = assay: Antifungal activity against fluconazole-resistant Cryptococcus neoformans ATCC 208821R assessed as fungal growth inhibition; assay type: functional

Compound | inhibition (Candida tropicalis) | MIC (Candida albicans [1]) | MIC (Aspergillus flavus [2]) | MIC (Aspergillus fumigatus [3]) | MIC (Cryptococcus neoformans [4]) | MIC (Candida albicans [5]) | MIC (Aspergillus fumigatus [6]) | MIC (Cryptococcus neoformans [7]) | MIC (Aspergillus flavus [8]) | fractional inhibitory concentration index (FICI) (Candida albicans [9]) | fractional inhibitory concentration index (FICI) (Aspergillus fumigatus [10]) | fractional inhibitory concentration index (FICI) (Cryptococcus neoformans [11]) | fractional inhibitory concentration index (FICI) (Aspergillus flavus [12]) | MIC (Candida albicans [13]) | IC50 [14] | MIC (Candida albicans [15]) | MIC (Cryptococcus neoformans [16])
COc1ccc2c(c1)C1(CCN(C(=O)C(O)C(O)C(=O)Nc3ccc(Br)cc3)CC1)OC(=O)N2 (stereo not drawn) | 43% | > 512 µg/mL | 512 µg/mL (≈ 958 µM) | > 512 µg/mL | 512 µg/mL (≈ 958 µM) | – | – | – | – | – | – | – | – | – | – | – | –
COc1ccc2c(c1)C1(CCN(C(=O)CC(=O)Nc3ccc(C)cc3)CC1)OC(=O)N2 | 13% | 512 µg/mL (≈ 1210 µM) | > 512 µg/mL | > 512 µg/mL | > 512 µg/mL | – | – | – | – | – | – | – | – | – | – | – | –
COc1ccc2c(c1)C1(CCN(C(=O)/C=C/C(=O)Nc3ccccc3Br)CC1)OC(=O)N2 | 40% | 256 µg/mL (≈ 512 µM) | 64 µg/mL (≈ 128 µM) | 128 µg/mL (≈ 256 µM) | 256 µg/mL (≈ 512 µM) | – | – | – | – | – | – | – | – | – | – | – | –
COc1ccc2c(c1)C1(CCN(C(=O)C(O)C(O)C(=O)Nc3ccc(C)cc3)CC1)OC(=O)N2 (stereo not drawn) | 43% | > 512 µg/mL | > 512 µg/mL | 256 µg/mL (≈ 545 µM) | > 512 µg/mL | – | – | – | – | – | – | – | – | – | – | – | –
COc1ccc2c(c1)C1(CCN(C(=O)CCC(=O)Nc3ccc(Br)cc3)CC1)OC(=O)N2 | 23% | 107 µg/mL (≈ 212 µM) | 256 µg/mL (≈ 510 µM) | 512 µg/mL (≈ 1020 µM) | 256 µg/mL (≈ 510 µM) | – | – | – | – | – | – | – | – | – | – | – | –
COc1ccc2c(c1)C1(CCN(C(=O)/C=C/C(=O)Nc3ccccc3[N+](=O)[O-])CC1)OC(=O)N2 | 18% | 512 µg/mL (≈ 1100 µM) | 512 µg/mL (≈ 1100 µM) | 256 µg/mL (≈ 549 µM) | 256 µg/mL (≈ 549 µM) | – | – | – | – | – | – | – | – | – | – | – | –
CCCCCOc1ccc(-c2cc(-c3ccc(C(=O)N[C@H]4C[C@@H](O)[C@@H](O)NC(=O)[C@@H]5[C@@H](O)[C@@H](C)CN5C(=O)[C@H]([C@H](O)CC(N)=O)NC(=O)[C@H]([C@H](O)[C@@H](O)c5ccc(O)c(OS(=O)(=O)O)c5)NC(=O)[C@@H]5C[C@@H](O)CN5C(=O)[C@H]([C@@H](C)O)NC4=O)cc3)no2)cc1 [MICAFUNGIN] (X1-[Orn(4R-OH,5R-OH)]T[Hyp][hTyr(3S-OH,4S-OH,3'-OSO3H)][Gln(3R-OH)][Pro(3S-OH,4S-Me)]; lactam 1-C) | – | 0.063 µg/mL (≈ 0.0496 µM) | – | – | > 512 µg/mL | – | – | – | – | – | – | – | – | 256 µg/mL (≈ 202 µM) | – | – | –
COc1ccc(NC(=O)C(O)C(O)C(=O)N2CCC3(CC2)OC(=O)Nc2ccc(OC)cc23)cc1 (stereo not drawn) | 52% | > 512 µg/mL | 512 µg/mL (≈ 1050 µM) | 256 µg/mL (≈ 527 µM) | > 512 µg/mL | – | – | – | – | – | – | – | – | – | – | – | –
COc1ccc(NC(=O)CCC(=O)N2CCC3(CC2)OC(=O)Nc2ccc(OC)cc23)cc1 | 17% | > 512 µg/mL | > 512 µg/mL | 256 µg/mL (≈ 565 µM) | 256 µg/mL (≈ 565 µM) | – | – | – | – | – | – | – | – | – | – | – | –
COc1ccc2c(c1)C1(CCN(C(=O)/C=C/C(=O)Nc3ccc(F)c(Cl)c3)CC1)OC(=O)N2 | 70% | 64 µg/mL (≈ 135 µM) | 16 µg/mL (≈ 33.8 µM) | 16 µg/mL (≈ 33.8 µM) | 64 µg/mL (≈ 135 µM) | 64 µg/mL | 8 µg/mL | 32 µg/mL | 64 µg/mL | 2 | 0.75 | 0.625 | 1.125 | 64 µg/mL (≈ 135 µM) | 160 µM | 53.3 µg/mL (≈ 113 µM) | 64 µg/mL (≈ 135 µM)
COc1ccc(NC(=O)CC(=O)N2CCC3(CC2)OC(=O)Nc2ccc(OC)cc23)cc1 | 16% | 512 µg/mL (≈ 1170 µM) | > 512 µg/mL | 256 µg/mL (≈ 583 µM) | > 512 µg/mL | – | – | – | – | – | – | – | – | – | – | – | –

Now from value to compound, other results behind:

inhibition (Candida tropicalis) | MIC (Candida albicans [1]) | MIC (Aspergillus flavus [2]) | MIC (Aspergillus fumigatus [3]) | MIC (Cryptococcus neoformans [4]) | Compound | MIC (Candida albicans [5]) | MIC (Aspergillus fumigatus [6]) | MIC (Cryptococcus neoformans [7]) | MIC (Aspergillus flavus [8]) | fractional inhibitory concentration index (FICI) (Candida albicans [9]) | fractional inhibitory concentration index (FICI) (Aspergillus fumigatus [10]) | fractional inhibitory concentration index (FICI) (Cryptococcus neoformans [11]) | fractional inhibitory concentration index (FICI) (Aspergillus flavus [12]) | MIC (Candida albicans [13]) | IC50 [14] | MIC (Candida albicans [15]) | MIC (Cryptococcus neoformans [16])
36% | 16 µg/mL (≈ 35.1 µM) | 32 µg/mL (≈ 70.2 µM) | 32 µg/mL (≈ 70.2 µM) | 32 µg/mL (≈ 70.2 µM) | COc1ccc2c(c1)C1(CCN(C(=O)/C=C/C(=O)Nc3ccccc3Cl)CC1)OC(=O)N2 | 16 µg/mL | 64 µg/mL | 16 µg/mL | 13.3 µg/mL | 1.125 | 2 | 0.625 | 1.42 | – | – | – | –
51% | 512 µg/mL (≈ 1120 µM) | 256 µg/mL (≈ 562 µM) | 128 µg/mL (≈ 281 µM) | 512 µg/mL (≈ 1120 µM) | COc1ccc2c(c1)C1(CCN(C(=O)/C=C/C(=O)Nc3ccc(Cl)cc3)CC1)OC(=O)N2 | – | – | – | – | – | – | – | – | – | – | – | –
37% | 256 µg/mL (≈ 567 µM) | 128 µg/mL (≈ 284 µM) | 128 µg/mL (≈ 284 µM) | 64 µg/mL (≈ 142 µM) | COc1cccc(NC(=O)/C=C/C(=O)N2CCC3(CC2)OC(=O)Nc2ccc(OC)cc23)c1 | – | – | – | – | – | – | – | – | – | – | – | –
42% | 256 µg/mL (≈ 588 µM) | > 512 µg/mL | > 512 µg/mL | > 512 µg/mL | COc1ccc2c(c1)C1(CCN(C(=O)/C=C/C(=O)Nc3cccc(C)c3)CC1)OC(=O)N2 | – | – | – | – | – | – | – | – | – | – | – | –
14% | 256 µg/mL (≈ 588 µM) | 512 µg/mL (≈ 1180 µM) | > 512 µg/mL | > 512 µg/mL | COc1ccc2c(c1)C1(CCN(C(=O)/C=C/C(=O)Nc3ccccc3C)CC1)OC(=O)N2 | – | – | – | – | – | – | – | – | – | – | – | –
